Patent publication US20240150303A1, “DIAMINOTRIAZINE COMPOUNDS” (BASF SE, priority 2021, published 2024)

Tests used:
Assay in all cases: greenhouse pre-emergence herbicidal test
Assay type in all cases: in vivo
Setaria faberi = system: Setaria faberi
Method in brief: (§1)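 Seeds sown per species; compounds suspended or emulsified in water and sprayed directly after sowing, pots irrigated and covered with transparent hoods until rooting. Evaluated over 2 to 4 weeks on a 0–100 scale (100 = no emergence or complete destruction of aerial parts, 0 = normal growth).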

Alopercurus myosuroides = system: Alopercurus myosuroides
Text: (§2) The culture containers used were plastic flowerpots containing loamy sand with approximately 3.0% of humus as the substrate. The seeds of the test plants were sown separately for each species.
(§3) For the pre-emergence treatment, the active ingredients, which had been suspended or emulsified in water, were applied directly after sowing by means of finely distributing nozzles.
(§4) The containers were irrigated gently to promote germination and growth and subsequently covered with transparent plastic hoods until the plants had rooted. This cover caused uniform germination of the test plants, unless this had been impaired by the active ingredients.
(§5) Depending on the species, the plants were kept at 10-25° C. or 20-35° C., respectively.
(§6) The test period extended over 2 to 4 weeks. During this time, the plants were tended, and their response to the individual treatments was evaluated.
(§7) Evaluation was carried out using a scale from 0 to 100. 100 means no emergence of the plants, or complete destruction of at least the aerial moieties, and 0 means no damage, or normal course of growth. A moderate herbicidal activity is given at values of at least 60, a good herbicidal activity is given at values of at least 70, and a very good herbicidal activity is given at values of at least 85.
(§8) The plants used in the greenhouse experiments were of the following species: […]

Lolium multiflorum = system: Lolium multiflorum
Text: as §2, §3, §4, §5, §6, §7, §8

Echinocloa crus-galli = system: Echinocloa crus-galli
Method in brief: as §1

Amaranthus retroflexus = system: Amaranthus retroflexus
Method in brief: as §1

Apera spica-venti = system: Apera spica-venti
Text: as §2, §3, §4, §5, §6, §7, §8

Abutilon theophrasti = system: Abutilon theophrasti
Text: as §2, §3, §4, §5, §6, §7, §8

CCC(C)(F)c1nc(N)nc(Nc2c(C)c(Cl)cc(Cl)c2OC)n1 (racemic) [Example 102]
herbicidal activity (Setaria faberi; 62.5 g/ha): 80% | herbicidal activity (Alopercurus myosuroides; 62.5 g/ha): 85% | herbicidal activity (Lolium multiflorum; 62.5 g/ha): 90%

COc1c(Cl)cc(Cl)c(C)c1Nc1nc(N)nc(C(C)(F)CCl)n1 (racemic) [Example 104]
herbicidal activity (Setaria faberi; 62.5 g/ha): 85% | herbicidal activity (Alopercurus myosuroides; 62.5 g/ha): 90% | herbicidal activity (Lolium multiflorum; 62.5 g/ha): 100%

COc1c(Cl)cc(C)c(C)c1Nc1nc(N)nc(C(C)(C)F)n1 [Example 15]
herbicidal activity (Echinocloa crus-galli; 125 g/ha): 100% | herbicidal activity (Setaria faberi; 31 g/ha): 90% | herbicidal activity (Setaria faberi; 125 g/ha): 100% | herbicidal activity (Alopercurus myosuroides; 31 g/ha): 95% | herbicidal activity (Alopercurus myosuroides; 125 g/ha): 100% | herbicidal activity (Lolium multiflorum; 31 g/ha): 95%

CCOc1c(F)cc(F)c(Cl)c1Nc1nc(N)nc(C(C)(C)F)n1 [Example 24]
herbicidal activity (Amaranthus retroflexus; 31 g/ha): 100% | herbicidal activity (Amaranthus retroflexus; 62.5 g/ha): 100% | herbicidal activity (Echinocloa crus-galli; 62.5 g/ha): 100% | herbicidal activity (Setaria faberi; 62.5 g/ha): 100% | herbicidal activity (Apera spica-venti; 31 g/ha): 100%

CCOc1c(Br)cc(F)c(Cl)c1Nc1nc(N)nc(C(C)(C)F)n1 [Example 30]
herbicidal activity (Amaranthus retroflexus; 31 g/ha): 85% | herbicidal activity (Setaria faberi; 31 g/ha): 100% | herbicidal activity (Abutilon theophrasti; 31 g/ha): 100% | herbicidal activity (Alopercurus myosuroides; 31 g/ha): 100% | herbicidal activity (Apera spica-venti; 31 g/ha): 85%

C#CCOc1c(Br)cc(F)c(Cl)c1Nc1nc(N)nc(C(C)(C)F)n1 [Example 31]
herbicidal activity (Amaranthus retroflexus; 250 g/ha): 100% | herbicidal activity (Echinocloa crus-galli; 250 g/ha): 100% | herbicidal activity (Setaria faberi; 31 g/ha): 100% | herbicidal activity (Abutilon theophrasti; 31 g/ha): 100% | herbicidal activity (Abutilon theophrasti; 250 g/ha): 100% | herbicidal activity (Apera spica-venti; 31 g/ha): 100%

COc1c(Cl)cc(Cl)c(C)c1Nc1nc(N)nc(C(C)F)n1 (centres unmarked) [Example 35]
herbicidal activity (Amaranthus retroflexus; 62.5 g/ha): 100% | herbicidal activity (Amaranthus retroflexus; 125 g/ha): 100% | herbicidal activity (Echinocloa crus-galli; 62.5 g/ha): 100% | herbicidal activity (Abutilon theophrasti; 62.5 g/ha): 100% | herbicidal activity (Abutilon theophrasti; 125 g/ha): 95% | herbicidal activity (Apera spica-venti; 125 g/ha): 100%

COc1c(Cl)cc(Cl)c(C)c1Nc1nc(N)nc(C2(F)CCCC2)n1 [Example 36]
herbicidal activity (Amaranthus retroflexus; 62.5 g/ha): 100% | herbicidal activity (Echinocloa crus-galli; 62.5 g/ha): 100% | herbicidal activity (Echinocloa crus-galli; 125 g/ha): 85% | herbicidal activity (Setaria faberi; 125 g/ha): 90% | herbicidal activity (Abutilon theophrasti; 62.5 g/ha): 100% | herbicidal activity (Apera spica-venti; 125 g/ha): 100%

COc1c(Cl)cc(Cl)c(C)c1Nc1nc(N)nc(C(C)(C)OC)n1 [Example 37]
herbicidal activity (Amaranthus retroflexus; 62.5 g/ha): 100% | herbicidal activity (Echinocloa crus-galli; 62.5 g/ha): 100% | herbicidal activity (Setaria faberi; 125 g/ha): 85% | herbicidal activity (Abutilon theophrasti; 62.5 g/ha): 98% | herbicidal activity (Abutilon theophrasti; 125 g/ha): 85% | herbicidal activity (Apera spica-venti; 125 g/ha): 100%

COc1c(Br)cc(C)c(C)c1Nc1nc(N)nc(C(C)(C)F)n1 [Example 45]
herbicidal activity (Amaranthus retroflexus; 62.5 g/ha): 100% | herbicidal activity (Echinocloa crus-galli; 62.5 g/ha): 100% | herbicidal activity (Setaria faberi; 62 g/ha): 100% | herbicidal activity (Setaria faberi; 62.5 g/ha): 100% | herbicidal activity (Abutilon theophrasti; 62 g/ha): 100% | herbicidal activity (Lolium multiflorum; 62 g/ha): 100%

CC(C)(F)c1nc(N)nc(Nc2c(Cl)ccc(F)c2OCC#CC2CC2)n1 [Example 52]
herbicidal activity (Amaranthus retroflexus; 62 g/ha): 100% | herbicidal activity (Echinocloa crus-galli; 62 g/ha): 100% | herbicidal activity (Echinocloa crus-galli; 62.5 g/ha): 100% | herbicidal activity (Setaria faberi; 62.5 g/ha): 100% | herbicidal activity (Abutilon theophrasti; 62 g/ha): 100% | herbicidal activity (Apera spica-venti; 62.5 g/ha): 100%

COc1c(Cl)cc(Br)c(C)c1Nc1nc(N)nc(C(C)(C)F)n1 [Example 60]
herbicidal activity (Amaranthus retroflexus; 31 g/ha): 100% | herbicidal activity (Amaranthus retroflexus; 62 g/ha): 100% | herbicidal activity (Setaria faberi; 31 g/ha): 98% | herbicidal activity (Setaria faberi; 62 g/ha): 100% | herbicidal activity (Abutilon theophrasti; 62 g/ha): 100% | herbicidal activity (Apera spica-venti; 31 g/ha): 95%

C#CCOc1c(Cl)cc(C)c(Cl)c1Nc1nc(N)nc(C(C)(C)F)n1 [Example 64]
herbicidal activity (Echinocloa crus-galli; 62 g/ha): 100% | herbicidal activity (Setaria faberi; 62 g/ha): 100% | herbicidal activity (Abutilon theophrasti; 62 g/ha): 100% | herbicidal activity (Lolium multiflorum; 62 g/ha): 98%
